Data published in ChEMBL document CHEMBL1151526, “3-Acetoxy-2,2-bi-1H-indol as a novel inhibitor of ATP binding to DnaA, the protein initiating chromosomal replication in escherichia coli” (Bioorg Med Chem Lett, 1994).

Experiment: Inhibition of [alpha-32P]ATP binding to DnaA protein purified from Escherichia coli

Row | SMILES | IC50 [µM]
1 | O=C1C(c2c[nH]c3ccccc23)=C(c2c[nH]c3ccccc23)C(=O)N1Cc1ccccc1 | > 10000
2 | CC(=O)Oc1c(-c2c(C(C)=O)c3ccccc3n2C(C)=O)[nH]c2ccccc12 | 1500
3 | CC(c1ccccc1)N1C(=O)c2c(c3c4ccccc4[nH]c3c3[nH]c4ccccc4c23)C1=O (stereo not given) | 5000
4 | Nc1ncnc2c1ncn2[C@@H]1O[C@H](CO)[C@@H](O)[C@H]1O [ADENOSINE] | > 10000
5 | CN(C)CCCn1cc(C2=C(c3c[nH]c4ccccc34)C(=O)NC2=O)c2ccccc21 [GF-109203] | 3000
6 | c1ccc2[nH]ccc2c1 [INDOLE] | > 10000
7 | O=C1NC(=O)C(c2c[nH]c3ccccc23)=C1c1c[nH]c2ccccc12 [RO-316233] | 1000

These reach a lower IC50. Values come first.

Row | IC50 [µM] | SMILES
8 | 200 | CCOc1c(-c2cc3ccccc3[nH]2)[nH]c2ccccc12
9 | 40 | CC(=O)Oc1c(-c2cc3ccccc3[nH]2)[nH]c2ccccc12
10 | 200 | O=C1/C(=C2\Nc3ccccc3C2=O)Nc2ccccc21 [INDIGO]
